This is an account of results in PMC10730852 (Communications Biology, 2023).

The target in assay [1] is Cph. More on the design: method as in ACS Chem. Biol. 17, 138, 2022. The following applies: ITC; ref ACS Chem. Biol. 17, 138, 2022; read-out: KD values for Cph interaction; cited from earlier work.
Assay [2] concerns E. coli/pET-22b (Control). Nature of the assay: Disk diffusion assay. The assay is classed as cell-based, E. coli BL21 Rosetta (DE3). As to conditions: Escherichia coli, 37 °C, 24 hr, read-out: inhibition zones. The protocol: The E. coli BL21 Rosetta (DE3) strains containing pET22b, and its carrying cph, cph001, cph002, cph003, aph(3′)-Ia, and mphB plasmids were cultured overnight. The cells, respectively, were then diluted to 0.1 OD600 in molten LB agar with 100 μg/mL ampicillin and 500 μM IPTG for the disk diffusion assay. The cells with ampicillin and IPTG were mixed well with molten LB agar and then poured into 10 cm diameter Petri dishes. […] The Petri dishes were placed in the incubator at 37 °C and the inhibition zones were observed after 24 hr.

For assay [3], the system named is Cph001. Nature of the assay: Coupled enzyme assay and Michaelis-Menten kinetics of Cph001. The assay is classed as biochemical, Streptosporangium roseum. As to conditions: 2 mM antibiotic substrate, ATP as phosphate donor; absorbance at 340 nm. Here is the method: The phosphorylation reaction was measured by a coupled enzyme assay as following. […] The reactions were mixed well in a final volume of 200 μL in 96-well plates. The Cph001 activity was assayed by determining the oxidation of NADH at 340 nm. The reaction buffer and enzyme concentration of the Cph reaction was followed by previous study. The 340 nm absorbance changes were detected at 30 °C for every 1 min at a time in 15 min on an EPOCH Microplate Reader (BioTek). All reactions were carried out in triplicate.
The initial velocity data were plotted against substrate concentrations and fit the Michaelis-Menten equation. The Km and Vmax values were calculated based on the Michaelis-Menten equation. GraphPad Prism was used for statistical data analysis. All reactions were carried out in triplicate.

In assay [4] the test system is E. coli/cph. Nature of the assay: Disk diffusion assay. The assay is classed as cell-based, E. coli BL21 Rosetta (DE3). The following applies: Escherichia coli, 24 h, read-out: inhibition zones. The protocol:
(§1) The E. coli BL21 Rosetta (DE3) strains containing pET22b, and its carrying cph, cph001, cph002, cph003, aph(3′)-Ia, and mphB plasmids were cultured overnight. The cells, respectively, were then diluted to 0.1 OD600 in molten LB agar with 100 μg/mL ampicillin and 500 μM IPTG for the disk diffusion assay. The cells with ampicillin and IPTG were mixed well with molten LB agar and then poured into 10 cm diameter Petri dishes. The 7 mm disks were placed onto the LB agar and gently loaded with varying quantities of CMN IIA, CMN IIB, VIO, Kan, and Ery, ranging from 0 to 200 μg. The Petri dishes were placed in the incubator at 37 °C and the inhibition zones were observed after 24 hr.

In assay [5] the test system is E. coli/cph001. Put plainly: Disk diffusion assay. The assay is classed as cell-based, E. coli BL21 Rosetta (DE3). The protocol:
as §1

Assay [6] deals with T1, Cph001 (Streptosporangium roseum, UniProt D2B3F1).
T1 sequence (D2B3F1 1-286): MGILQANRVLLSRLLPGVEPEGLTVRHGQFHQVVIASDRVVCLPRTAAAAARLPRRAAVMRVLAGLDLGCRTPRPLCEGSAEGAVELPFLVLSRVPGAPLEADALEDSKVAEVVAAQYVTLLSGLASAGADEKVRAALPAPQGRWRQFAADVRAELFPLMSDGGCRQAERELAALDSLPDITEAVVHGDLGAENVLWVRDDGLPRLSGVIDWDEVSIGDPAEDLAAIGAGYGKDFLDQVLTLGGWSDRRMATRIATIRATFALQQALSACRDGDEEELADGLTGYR
Put plainly: Isothermal titration calorimetry (ITC) analysis of Cph001. The assay is classed as binding.
Text: The integrated heat areas constitute a differential binding curve that was fitted with a standard single-site binding model by Origin 7.

[7] abbreviates: Escherichia coli, 24 h, read-out: inhibition zones.

As to `C[C@@H]1NC(=O)[C@@H](N)CNC(=O)[C@H](C2CCNC(=N)N2)NC(=O)/C(=C/NC(N)=O)NC(=O)[C@H](CNC(=O)C[C@@H](N)CCCN)NC1=O` (stereo partly drawn) [CMN IIB], the Kd in assay [1] is 5.48 µM; in assay [6], 55.2 ± 4.4 µM. Moreover, the zone of inhibition at 12.5 µg/disc in assay [2] (12.5 μg on disk) was found to be 17 mm; in assay [5] (setting [7]), 11 mm. Also, the results for the zone of inhibition at 50 µg/disc in assay [2] (50 μg on disk), in assay [4] and in assay [5] (setting [7]) were 23 mm, 12 mm and 14 mm, respectively. In addition, the zone of inhibition at 100 µg/disc in assay [2] (100 μg on disk) was found to be 25 mm; in assay [4] it was 14 mm; in assay [5] (setting [7]), 16 mm. The zone of inhibition at 200 µg/disc is 27 mm in assay [2] (200 μg on disk), 16 mm in assay [4] and 17.5 mm in assay [5] (setting [7]). Besides, the “phosphorylation by Cph001 in couple enzyme assay” value in assay [3] is on record as “incapable of phosphorylating”. Besides, the “resistance in disk diffusion assay” value in assay [5] (E. coli harboring cph001) was “capable of endowing E. coli with resistance”.
